Reference: ChEMBL document CHEMBL1201862, “PubChem BioAssay data set” (2004)
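Protocol summary: plate cells (96-well), add compound at 5 concentrations, incubate 48 h, interpolate endpoints linearly. Here, GI50 denotes the concentration required for 50% inhibition of growth.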 Activity calls are given as the source filed them. Rule as the data show it: active = GI50 up to about 1.1 µM and inactive = higher.

How the values were obtained:
Assay in all cases: NCI anticancer screen, dose series, 48 h
[1] = test system: 786-0
[2] = test system: A498
[3] = test system: A549
[4] = test system: ACHN
[5] = test system: CAKI-1
[6] = test system: CCRF-CEM
[7] = test system: COLO 205
[8] = test system: DLD-1
[9] = test system: DMS-114
[10] = test system: DMS-273
[11] = test system: EKVX
[12] = test system: HCC 2998
[13] = test system: HCT-116
[14] = test system: HL-60
[15] = test system: HOP-62
[16] = test system: HOP-92
[17] = test system: HT-29
[18] = test system: IGROV-1
[19] = test system: K562
[20] = test system: KM-20L2
[21] = test system: KM12
[22] = test system: LOX IMVI
[23] = test system: LXFL 529
[24] = test system: M14
[25] = test system: MOLT-4
[26] = test system: Malme-3M
[27] = test system: NCI-H226
[28] = test system: NCI-H23
[29] = test system: NCI-H522
[30] = test system: OVCAR-3
[31] = test system: OVCAR-4
[32] = test system: OVCAR-5
[33] = test system: RPMI-8226
[34] = test system: RXF 393
[35] = test system: SF-268
[36] = test system: SF-295
[37] = test system: SF-539
[38] = test system: SK-MEL-28
[39] = test system: SK-MEL-2
[40] = test system: SK-MEL-5
[41] = test system: SK-OV-3
[42] = test system: SN12C
[43] = test system: SNB-19
[44] = test system: SNB-78
[45] = test system: SR
[46] = test system: SW-620
[47] = test system: TK-10
[48] = test system: U-251
[49] = test system: UACC-257
[50] = test system: UACC-62
[51] = test system: UO-31
[52] = test system: HCT-15
[53] = test system: M19-MEL
[54] = test system: NCI-H460
[55] = test system: OVCAR-8
[56] = test system: XF498

For COc1cc2cc3c4c(cc(OC)c(OC)c4c2cc1OC)CCN3C(=O)CCC(=O)O, the GI50 [1] was > 100 µM (inactive), the GI50 [2] was 97.9 µM (inactive) and the GI50 [3] was > 100 µM (inactive). The GI50 [4] was > 100 µM (inactive), the GI50 [5] was > 100 µM (inactive) and the GI50 [6] was > 100 µM (inactive). The GI50 [7] was > 100 µM (inactive), the GI50 [8] was > 100 µM (inactive) and the GI50 [9] was > 100 µM (inactive). The GI50 [10] was > 100 µM (inactive), the GI50 [11] was > 100 µM (inactive) and the GI50 [12] was > 100 µM (inactive). The GI50 [13] was > 100 µM (inactive), the GI50 [14] was > 100 µM (inactive) and the GI50 [15] was > 100 µM (inactive). The GI50 [16] was > 100 µM (inactive), the GI50 [17] was > 100 µM (inactive) and the GI50 [18] was > 100 µM (inactive). For the same compound, the GI50 [19] was > 100 µM (inactive), the GI50 [20] was > 100 µM (inactive) and the GI50 [21] was > 100 µM (inactive). For the same compound, the GI50 [22] was > 100 µM (inactive), the GI50 [23] was > 100 µM (inactive) and the GI50 [24] was > 100 µM (inactive). For the same compound, the GI50 [25] was > 100 µM (inactive), the GI50 [26] was > 100 µM (inactive) and the GI50 [27] was > 100 µM (inactive). The GI50 [28] was > 100 µM (inactive), the GI50 [29] was > 100 µM (inactive) and the GI50 [30] was > 100 µM (inactive). The GI50 [31] was > 100 µM (inactive), the GI50 [32] was > 100 µM (inactive) and the GI50 [33] was > 100 µM (inactive). The GI50 [34] was > 100 µM (inactive), the GI50 [35] was > 100 µM (inactive) and the GI50 [36] was > 100 µM (inactive). For the same compound, the GI50 [37] was > 100 µM (inactive), the GI50 [38] was > 100 µM (inactive) and the GI50 [39] was > 100 µM (inactive). The GI50 [40] was > 100 µM (inactive), the GI50 [41] was > 100 µM (inactive) and the GI50 [42] was > 100 µM (inactive). The GI50 [43] was > 100 µM (inactive), the GI50 [44] was > 100 µM (inactive) and the GI50 [45] was > 100 µM (inactive). The GI50 [46] was > 100 µM (inactive), the GI50 [47] was > 100 µM (inactive) and the GI50 [48] was > 100 µM (inactive). For the same compound, the GI50 [49] was > 100 µM (inactive), the GI50 [50] was > 100 µM (inactive) and the GI50 [51] was > 100 µM (inactive).

For CCC12CCCNC1c1c(n(C)c3ccccc13)C(C(=O)OC)C2 (configuration not stated), the GI50 [1] was 93.8 µM (inactive), the GI50 [3] was 93.3 µM (inactive) and the GI50 [4] was 79.4 µM (inactive). The GI50 [5] was 32.8 µM (inactive), the GI50 [6] was 85.1 µM (inactive) and the GI50 [7] was 38.8 µM (inactive). The GI50 [8] was 76.4 µM (inactive), the GI50 [9] was 18.5 µM (inactive) and the GI50 [10] was 68.7 µM (inactive). For the same compound, the GI50 [11] was 79.3 µM (inactive), the GI50 [12] was 67.8 µM (inactive) and the GI50 [13] was 37.6 µM (inactive). For the same compound, the GI50 [52] was 81.1 µM, the GI50 [14] was 72.9 µM (inactive) and the GI50 [15] was 93.3 µM (inactive). The GI50 [16] was 16.3 µM (inactive), the GI50 [17] was 38.1 µM (inactive) and the GI50 [18] was 61.4 µM (inactive). For the same compound, the GI50 [19] was 67.9 µM (inactive), the GI50 [20] was 44.3 µM (inactive) and the GI50 [21] was 58.3 µM (inactive). For the same compound, the GI50 [22] was 93.1 µM (inactive), the GI50 [23] was 80.2 µM (inactive) and the GI50 [53] was 68.4 µM (inactive). The GI50 [25] was 68.7 µM (inactive), the GI50 [26] was 80.2 µM (inactive) and the GI50 [27] was 126 µM (inactive). The GI50 [28] was 51.6 µM (inactive), the GI50 [54] was 76.9 µM (inactive) and the GI50 [29] was 8.02 µM (inactive). For the same compound, the GI50 [30] was 11.2 µM (inactive), the GI50 [32] was 67 µM (inactive) and the GI50 [55] was 88.3 µM (inactive). The GI50 [33] was 9.4 µM (inactive), the GI50 [34] was 36.5 µM (inactive) and the GI50 [35] was 85.5 µM (inactive). The GI50 [36] was 50.4 µM (inactive), the GI50 [37] was 108 µM (inactive) and the GI50 [38] was 100 µM (inactive). The GI50 [39] was 62.2 µM (inactive), the GI50 [40] was 36.6 µM (inactive) and the GI50 [41] was 46.9 µM (inactive). For the same compound, the GI50 [42] was 78.3 µM (inactive), the GI50 [43] was 95.5 µM (inactive) and the GI50 [45] was 49.8 µM (inactive). The GI50 [46] was 68.1 µM (inactive), the GI50 [47] was 116 µM (inactive) and the GI50 [48] was 61.7 µM (inactive). The GI50 [49] was 59.2 µM (inactive), the GI50 [50] was 56.8 µM (inactive) and the GI50 [56] was 51.6 µM (inactive).
